Consider 14 compounds from patent publication US20070021419A1, “2-Aminophenyl-4-phenylpyrimidines as kinase inhibitors” (Cyclacel Limited, priority 2003, published 2007).

For experiment [1], the target named is CDK2/cyclin A (Homo sapiens, UniProt P24941). Briefly: Kinase assay, radioactive phosphate incorporation, CDK2/cyclin A. The experiment is classed as biochemical. The conditions noted are these: 100 μM ATP, 30° C.; read-out: Kinase inhibition IC50 CDK2/cyclin A. On the procedure:
(§1) The compounds from the examples above were investigated for their ability to inhibit the enzymatic activity of various protein kinases. This was achieved by measurement of incorporation of radioactive phosphate from ATP into appropriate polypeptide substrates. Recombinant protein kinases and kinase complexes were produced or obtained commercially. Assays were performed using 96-well plates and appropriate assay buffers (typically 25 mM β-glycerophosphate, 20 mM MOPS, 5 MM EGTA, 1 mM DTT, 1 mM Na3VO3, pH 7.4), into which were added 2-4 μg of active enzyme with appropriate substrates. The reactions were initiated by addition of Mg/ATP mix (15 mM MgCl2+100 μM ATP with 30-50 kBq per well of [γ-^32P]-ATP) and mixtures incubated as required at 30° C. Reactions were stopped on ice, followed by filtration through p81 filterplates or GF/C filterplates (Whatman Polyfiltronics, Kent, UK). After washing 3 times with 75 mM aq orthophosphoric acid, plates were dried, scintillant added and incorporated radioactivity measured in a scintillation counter (TopCount, Packard Instruments, Pangbourne, Berks, UK). Compounds for kinase assay were made up as 10 mM stocks in DMSO and diluted into 10% DMSO in assay buffer.

Experiment [2] concerns the target CDK4/cyclin D1 (Homo sapiens, UniProt P11802). Briefly: Kinase assay, radioactive phosphate incorporation, CDK4/cyclin D1. In kind it is biochemical. The conditions noted are these: 100 μM ATP, 30° C.; read-out: Kinase inhibition IC50 CDK4/cyclin D1. The method, then:
as §1

Experiment [3] has as its target CDK9/cyclin T1 (Homo sapiens, UniProt P50750). Nature of the experiment: Kinase assay, radioactive phosphate incorporation, CDK9/cyclin T1. To be noted: 100 μM ATP, 30° C.; read-out: Kinase inhibition IC50 CDK9/cyclin T1. The experiment is classed as biochemical. On the procedure:
as §1

In experiment [4] the test system is transformed human cell lines (A549, HT29, Saos-2). Briefly: 72-h MTT cytotoxicity assay, average of cell lines. In kind it is cell-based. The conditions noted are these: read-out: 72-h MTT IC50 Average, average of A549, HT29, Saos-2. On the procedure:
(§2) The compounds from the examples above were subjected to a standard cellular proliferation assay using human tumour cell lines obtained from the ATCC (American Type Culture Collection, 10801 University Boulevard, Manessas, Va. 20110-2209, USA). Standard 72-h MTT (thiazolyl blue; 3-[4,5-dimethylthiazol-2-yl]-2,5-diphenyltetrazolium bromide) assays were performed. In short: cells were seeded into 96-well plates according to doubling time and incubated overnight at 37° C. Test compounds were made up in DMSO and a 1/3 dilution series prepared in 100 μL cell media, added to cells (in triplicates) and incubated for 72 ho at 37° C. MTT was made up as a stock of 5 mg/mL in cell media and filter-sterilised. Media was removed from cells followed by a wash with 200 μL PBS. MTT solution was then added at 20 μL per well and incubated in the dark at 37° C. for 4 h. MTT solution was removed and cells again washed with 200 μL PBS. MTT dye was solubilised with 200 μL per well of DMSO with agitation.
Background: Formazan colour is commonly taken as a measure of viable cells.

Experiment [5] deals with CDK2/cyclin E (Homo sapiens, UniProt P24941). Briefly: Kinase assay, radioactive phosphate incorporation, CDK2/cyclin E. In kind it is biochemical. To be noted: 100 μM ATP, 30° C.; read-out: Kinase inhibition IC50 CDK2/cyclin E. On the procedure: as §1
Experiment [6] addresses CDK7/cyclin H (Homo sapiens, UniProt P50613). Nature of the experiment: Kinase assay, radioactive phosphate incorporation, CDK7/cyclin H. The experiment is classed as biochemical. The conditions noted are these: 100 μM ATP, 30° C.; read-out: Kinase inhibition IC50 CDK7/cyclin H. The method, then:
as §1

Experiment [7] concerns Saos-2. Nature of the experiment: 72-h MTT cytotoxicity assay, Saos-2. In kind it is cell-based. The conditions noted are these: Homo sapiens, read-out: 72-h MTT IC50 Saos-2, Saos-2 cell line. On the procedure:
as §2

Experiment [8] relates to A549. Briefly: 72-h MTT cytotoxicity assay, A549. In kind it is cell-based. To be noted: Homo sapiens, read-out: 72-h MTT IC50 A549, A549 cell line. On the procedure:
as §2

Experiment [9] relates to HT29. Nature of the experiment: 72-h MTT cytotoxicity assay, HT29. The conditions noted are these: Homo sapiens, HT-29, read-out: 72-h MTT IC50 HT29, HT29 cell line. In kind it is cell-based. On the procedure:
as §2

Experiment [10] concerns the target GSK3β (Homo sapiens, UniProt P49841). Nature of the experiment: Kinase assay, radioactive phosphate incorporation, GSK3β. In kind it is biochemical. The conditions noted are these: 100 μM ATP, 30° C.; read-out: Kinase inhibition IC50 GSK3β. The method, then: as §1

GSK3β, sequence (P49841 whole entry, species assumed): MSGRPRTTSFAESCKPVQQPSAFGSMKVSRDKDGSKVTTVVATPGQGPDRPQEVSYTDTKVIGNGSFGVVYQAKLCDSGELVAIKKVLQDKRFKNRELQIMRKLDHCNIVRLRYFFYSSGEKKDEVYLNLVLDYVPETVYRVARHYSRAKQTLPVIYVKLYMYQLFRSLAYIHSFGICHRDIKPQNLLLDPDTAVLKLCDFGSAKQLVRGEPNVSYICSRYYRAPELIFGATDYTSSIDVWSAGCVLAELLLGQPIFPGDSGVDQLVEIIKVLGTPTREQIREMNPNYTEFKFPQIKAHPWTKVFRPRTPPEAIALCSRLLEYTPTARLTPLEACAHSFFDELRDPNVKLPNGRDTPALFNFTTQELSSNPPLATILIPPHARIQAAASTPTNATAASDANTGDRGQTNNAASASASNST
CDK9/cyclin T1, sequence (P50750 whole entry, species assumed): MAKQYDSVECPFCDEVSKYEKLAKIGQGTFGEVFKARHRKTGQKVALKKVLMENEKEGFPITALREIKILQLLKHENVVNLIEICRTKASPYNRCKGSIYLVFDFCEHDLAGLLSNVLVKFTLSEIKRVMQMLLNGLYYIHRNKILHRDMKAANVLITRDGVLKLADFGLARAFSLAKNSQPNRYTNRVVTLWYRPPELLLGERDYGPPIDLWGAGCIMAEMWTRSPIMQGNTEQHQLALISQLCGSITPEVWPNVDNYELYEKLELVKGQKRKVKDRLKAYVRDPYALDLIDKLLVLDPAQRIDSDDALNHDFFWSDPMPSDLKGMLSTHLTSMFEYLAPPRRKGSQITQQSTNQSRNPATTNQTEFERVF
CDK9/cyclin T1, sequence (O60563 whole entry partner, species assumed): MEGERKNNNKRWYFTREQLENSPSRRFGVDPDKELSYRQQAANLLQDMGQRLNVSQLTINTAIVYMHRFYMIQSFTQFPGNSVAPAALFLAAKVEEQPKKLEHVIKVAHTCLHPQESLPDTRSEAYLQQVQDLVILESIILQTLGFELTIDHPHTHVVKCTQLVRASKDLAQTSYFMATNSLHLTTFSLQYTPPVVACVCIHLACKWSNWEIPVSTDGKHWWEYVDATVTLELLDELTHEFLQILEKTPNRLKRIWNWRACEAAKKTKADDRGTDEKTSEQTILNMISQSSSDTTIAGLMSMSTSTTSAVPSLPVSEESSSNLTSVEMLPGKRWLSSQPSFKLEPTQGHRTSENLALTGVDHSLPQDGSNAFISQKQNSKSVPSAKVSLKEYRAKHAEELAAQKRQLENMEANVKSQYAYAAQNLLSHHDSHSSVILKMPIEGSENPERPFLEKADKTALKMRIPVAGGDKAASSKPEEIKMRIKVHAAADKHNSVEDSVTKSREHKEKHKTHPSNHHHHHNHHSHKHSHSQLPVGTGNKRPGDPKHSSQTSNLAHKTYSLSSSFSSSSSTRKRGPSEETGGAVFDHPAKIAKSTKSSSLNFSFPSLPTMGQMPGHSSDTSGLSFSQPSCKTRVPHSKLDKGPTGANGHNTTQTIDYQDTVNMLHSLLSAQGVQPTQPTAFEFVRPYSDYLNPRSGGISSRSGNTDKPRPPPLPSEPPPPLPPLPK
CDK4/cyclin D1, sequence (P11802 whole entry, species assumed): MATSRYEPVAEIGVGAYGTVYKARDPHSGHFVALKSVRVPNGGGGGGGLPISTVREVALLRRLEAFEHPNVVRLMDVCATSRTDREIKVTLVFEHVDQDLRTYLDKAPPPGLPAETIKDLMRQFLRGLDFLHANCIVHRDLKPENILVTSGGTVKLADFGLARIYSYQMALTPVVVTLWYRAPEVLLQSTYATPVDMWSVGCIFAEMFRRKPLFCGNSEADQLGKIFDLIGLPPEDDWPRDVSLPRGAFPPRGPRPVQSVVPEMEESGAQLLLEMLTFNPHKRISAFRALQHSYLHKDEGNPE
CDK4/cyclin D1, sequence (P24385 whole entry partner, species assumed): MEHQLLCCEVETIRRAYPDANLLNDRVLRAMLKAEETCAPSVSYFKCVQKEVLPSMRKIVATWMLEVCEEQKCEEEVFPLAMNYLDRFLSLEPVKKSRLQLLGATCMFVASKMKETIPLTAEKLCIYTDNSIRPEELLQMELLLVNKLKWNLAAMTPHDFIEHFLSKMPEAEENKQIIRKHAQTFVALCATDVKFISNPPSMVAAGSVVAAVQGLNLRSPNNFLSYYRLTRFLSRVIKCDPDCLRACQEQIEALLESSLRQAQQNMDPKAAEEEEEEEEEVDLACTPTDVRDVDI
CDK7/cyclin H, sequence (P50613 whole entry, species assumed): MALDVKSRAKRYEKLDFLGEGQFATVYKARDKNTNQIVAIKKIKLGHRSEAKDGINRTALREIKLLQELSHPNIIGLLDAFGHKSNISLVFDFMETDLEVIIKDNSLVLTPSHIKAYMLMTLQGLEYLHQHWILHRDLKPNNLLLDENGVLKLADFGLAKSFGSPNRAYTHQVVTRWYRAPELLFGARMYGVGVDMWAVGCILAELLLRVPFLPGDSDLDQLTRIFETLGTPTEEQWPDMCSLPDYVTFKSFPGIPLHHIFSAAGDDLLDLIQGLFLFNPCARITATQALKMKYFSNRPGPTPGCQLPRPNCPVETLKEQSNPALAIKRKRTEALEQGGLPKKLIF
CDK7/cyclin H, sequence (P51946 whole entry partner, species assumed): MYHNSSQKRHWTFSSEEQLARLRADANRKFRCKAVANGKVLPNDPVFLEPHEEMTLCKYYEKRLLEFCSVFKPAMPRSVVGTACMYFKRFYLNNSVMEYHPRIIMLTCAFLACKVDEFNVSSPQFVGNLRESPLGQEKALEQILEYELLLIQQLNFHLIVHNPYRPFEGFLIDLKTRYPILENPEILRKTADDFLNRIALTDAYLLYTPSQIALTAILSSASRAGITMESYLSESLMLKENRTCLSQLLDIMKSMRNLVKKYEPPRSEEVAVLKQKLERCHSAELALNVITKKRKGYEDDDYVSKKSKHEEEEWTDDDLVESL

As for `O=[N+]([O-])c1cccc(Nc2nccc(-c3cccc(CNCc4ccccc4)c3)n2)c1` [Compound 27, {4-[3-(Benzylamino-methyl)-phenyl]-pyrimidin-2-yl}-(3-nitro-phenyl)-amine], the IC50 in [1] came out at 6.5 µM; in experiment [2], 16 µM; in [3], 2 µM; in experiment [4], 20.9 ± 20.3 µM; in [5] it was 0.57 µM; in [6], 6 µM. For the same compound, the IC50 in experiment [7] is 43.8 µM; in [8], 14.1 µM; in [9], 4.9 µM; in [10] it was 0.18 µM.
Regarding `O=[N+]([O-])c1cccc(Nc2nccc(-c3cccc(Cn4cncn4)c3)n2)c1` [Compound 30, (3-Nitro-phenyl)-[4-(3-[1,2,4]triazol-1-ylmethyl-phenyl)-pyrimidin-2-yl]-amine], the IC50 amounted to 0.002 µM in experiment [3]; 6.5 ± 1.8 µM in [4]; 0.04 µM in [5]; 0.57 µM in experiment [6]; 4.4 µM in experiment [7]; 8 µM in experiment [8]. Also, the figures for the IC50 in experiment [9] and in experiment [10] were 7.1 µM and 0.019 µM, respectively.
Turning to `c1cc(Cn2cncn2)cc(-c2ccnc(Nc3ccc(N4CCOCC4)cc3)n2)c1` [Compound 32, (4-Morpholin-4-yl-phenyl)-[4-(3-[1,2,4]triazol-1-ylmethyl-phenyl)-pyrimidin-2-yl]-amine], the IC50 came out at 2.2 µM in experiment [2]; 0.42 µM in experiment [3]; 22 ± 17.2 µM in [4]; 4.4 µM in [5]; 4 µM in experiment [6]; 40.3 µM in [7]. For the same compound, the IC50 in experiment [8] worked out at 19.7 µM; in experiment [9] it was 6.1 µM; in [10] it was 0.37 µM.
As for `Oc1ccc(Nc2nccc(-c3cccc(Cn4cncn4)c3)n2)cc1` [Compound 33, 4-[4-(3-[1,2,4]triazol-1-ylmethyl-phenyl)-pyrimidin-2-ylamino]-phenol], the IC50 in [1] amounted to 2 µM; in [2], 9.1 µM; in experiment [3], 0.092 µM; in experiment [4], 12.8 ± 7 µM; in experiment [5] it was 0.14 µM; in [6], 1.1 µM. Besides, the IC50 in [7] amounted to 7.4 µM; in [8] it was 10.3 µM; in [9] it was 20.7 µM; in [10], 0.12 µM.
In the case of `COc1cccc(Nc2nccc(-c3cccc(Cn4cncn4)c3)n2)c1` [Compound 35, (3-Methoxy-phenyl)-[4-(3-[1,2,4]triazol-1-ylmethyl-phenyl)-pyrimidin-2-yl]-amine], the IC50 in experiment [1] is 3.2 µM; in [2], 0.57 µM; in experiment [3], 0.069 µM; in experiment [4], 15.3 ± 7.7 µM; in experiment [5], 0.92 µM; in experiment [6], 0.58 µM. Besides, the IC50 in [7] worked out at 23.2 µM; in experiment [8], 15 µM; in experiment [9] it was 7.7 µM; in experiment [10] it was 0.1 µM.
As to `N#Cc1cccc(Nc2nccc(-c3cccc(Cn4cncn4)c3)n2)c1` [Compound 36, 3-[4-(3-[1,2,4]triazol-1-ylmethyl-phenyl)-pyrimidin-2-ylamino]-benzonitrile], the IC50 turned out to be 3.9 µM in experiment [1]; 4.7 µM in [2]; 0.009 µM in experiment [3]; 0.079 µM in [5]; 0.32 µM in experiment [6]; 0.032 µM in experiment [10].
On to `CN(C)c1ccc(Nc2nccc(-c3cccc(Cn4cncn4)c3)n2)cc1` [Compound 43, N,N-Dimethyl-N′-[4-(3-[1,2,4]triazol-1-ylmethyl-phenyl)-pyrimidin-2-yl]-benzene-1,4-diamine], for which the IC50 in experiment [2] is 1.9 µM; in [3], 0.53 µM; in experiment [4] it was 17.9 ± 11.8 µM; in experiment [5], 3.7 µM; in experiment [6], 1.4 µM; in experiment [7], 30.9 µM. Further, the IC50 in experiment [8] amounted to 14.9 µM; in [9] it was 7.8 µM; in [10] it was 0.19 µM.
Take `COc1ccc(OC)c(-c2ccnc(Nc3ccc(O)cc3)n2)c1` [Compound 45, 4-[4-(2,5-Dimethoxy-phenyl)-pyrimidin-2-ylamino]-phenol]: the IC50 stood at 28 µM in [2]; 25 µM in experiment [3]; 17.1 ± 8.9 µM in [4]; 5.8 µM in experiment [5]; 16 µM in [6]; 17.4 µM in [7]. In addition, the IC50 in experiment [8] is 25.9 µM; in [9], 8.1 µM; in experiment [10], 3.6 µM.
With `O=[N+]([O-])c1cccc(Nc2nccc(-c3ccc(Cl)c(Cn4cncn4)c3)n2)c1` [Compound 47, [4-(4-Chloro-3-[1,2,4]triazol-1-ylmethyl-phenyl)-pyrimidin-2-yl]-(3-nitro-phenyl)-amine], the IC50 was determined as 28 µM in [2]; 1.3 µM in experiment [3]; 1.4 µM in experiment [5]; 20 µM in experiment [6]; 0.13 µM in [10].
Consider `COc1ccc(Nc2nccc(-c3cccc(Cn4cncn4)c3)n2)cn1` [Compound 50, (6-Methoxy-pyridin-3-yl)-[4-(3-[1,2,4]triazol-1-ylmethyl-phenyl)-pyrimidin-2-yl]-amine], for which the IC50 in [2] came out at 9.4 µM; in [3] it was 0.044 µM; in [4], 20 ± 12 µM; in [5] it was 1.8 µM; in experiment [6] it was 0.65 µM; in experiment [7] it was 33.8 µM. Besides, the IC50 is 14.3 µM in [8], 11.9 µM in experiment [9] and 0.084 µM in [10].
On to `COc1ccc(Nc2nccc(-c3cccc(C#N)c3)n2)cn1` [Compound 51, 3-[2-(6-Methoxy-pyridin-3-ylamino)-pyrimidin-4-yl]-benzonitrile], for which the IC50 in experiment [3] was 3 µM; in experiment [4], 37.7 ± 28.4 µM; in experiment [5], 7 µM; in experiment [6], 28 µM; in experiment [7] it was 67 µM; in [8], 35.7 µM. For the same compound, the IC50 in experiment [9] was found to be 10.3 µM; in experiment [10], 0.37 µM.
Consider `COc1ccc(Nc2nccc(-c3cccc(CN4CCN(C)CC4)c3)n2)cn1` [Compound 58, (6-Methoxy-pyridin-3-yl)-{4-[3-(4-methyl-piperazin-1-ylmethyl)-phenyl]-pyrimidin-2-yl}-amine], for which the IC50 in experiment [1] was determined as 10 µM; in experiment [2] it was 11 µM; in [3] it was 0.19 µM; in [4], 7.4 ± 2 µM; in [6] it was 36 µM; in experiment [7] it was 9.6 µM. Besides, the IC50 in experiment [8] stood at 7 µM; in experiment [9], 5.7 µM.
For `COc1ccc(-c2ccnc(Nc3cccc([N+](=O)[O-])c3)n2)cc1` [Compound 94, [4-(4-Methoxy-phenyl)-pyrimidin-2-yl]-(3-nitro-phenyl)-amine], the IC50 in experiment [1] came out at 0.93 µM; in experiment [3] it was 0.02 µM; in experiment [5] it was 0.3 µM; in [6] it was 0.99 µM; in experiment [10], 0.03 µM.
With `COc1ccc(-c2ccnc(Nc3ccc(OC)nc3)n2)cc1` [Compound 124, [4-(4-Methoxy-phenyl)-pyrimidin-2-yl]-(6-methoxy-pyridin-3-yl)-amine], the IC50 in [1] was 1.1 µM; in experiment [2], 1.5 µM; in [3], 0.02 µM; in experiment [10], 0.09 µM.
